{"source": "patent US9126060B2", "about": "“Cosmetic use of geranylgeranyl-2-propanol” (SEDERMA, priority 2010, dated 2015)", "key": {"[1]": {"assay": "ORAC test (Oxygen-Radical Absorbance Capacity): fluorescein degradation by peroxyl radicals", "assay_type": "biochemical", "conditions": "n = 6", "text": "Principle: the ORAC test (“Oxygen-Radical Absorbance Capacity”) measures degradation by the oxidative way of a fluorescent molecule (fluorescein). Degradation of fluorescein by peroxyl radicals generated by AAPH (2,2′-azobis (2-amidinopropane) dichloride) induces a decrease in fluorescence measured by a spectrofluorometer during a degradation kinetic.\nAn antioxidant protects this fluorescein against this radical degradation. The decrease in fluorescence will be smaller and slower in the presence of the antioxidant than in its absence. The comparison between the parameters of the two kinetics makes it possible to calculate a percentage of protection against free radical degradation."}, "human dermal fibroblasts": {"system": "human dermal fibroblasts", "assay": "Collagen gel contraction by human dermal fibroblasts cultivated until presenescence", "assay_type": "cell-based", "conditions": "for Gel heterogeneity / Gel surface: n = 5", "text": "Principle: Proliferative human dermal fibroblasts were cultivated with or without the GGP over several generations to obtain presenescent cells. A constant number of cells from each case was then included in a collagen gel. The contractile capacity of cells was then followed by using photographs. Quantification by image analysis, focused on the intensity of the contraction (gel surface) and the contraction quality (gel heterogeneity)."}, "fibroblasts": {"system": "fibroblasts", "assay": "DNA array gene expression on fibroblasts", "assay_type": "cell-based"}, "hyaluronic acid": {"system": "hyaluronic acid", "assay": "Hyaluronic acid synthesis in human fibroblasts", "assay_type": "cell-based", "conditions": "for hyaluronic acid (AH): 24 hours, n = 5", "protocol": "Principle: Human dermal fibroblasts were grown in plate for 24 hours. The cells are then placed in contact or not with GGP for 24 hours. Culture supernatants were collected and assayed for the amount of hyaluronic acid (HA) is then divided by the number of cells present on the layer. TGF-β1 is used as a positive control."}, "[2]": {"conditions": "after 3, 6 and 24 hours of contact"}, "[3]": {"conditions": "after 6 and 24 hours of contact"}}, "data": [{"smiles": "CC(C)=CCC/C(C)=C/CC/C(C)=C/CC/C(C)=C/CCC(C)O", "note": "(centres unmarked) [GGP, 6,10,14,18-tetramethylnonadeca-5,9,13,17-tetraen-2-ol]", "values": [{"measurement": "% of protection", "setting": "[1]; 10 ppm", "value": 56, "unit": "%"}, {"measurement": "% of protection", "setting": "[1]; 50 ppm", "value": 68, "unit": "%"}, {"measurement": "% of protection", "setting": "[1]; 200 ppm", "value": 77, "unit": "%"}, {"measurement": "% of protection", "setting": "[1]; 400 ppm", "value": 87, "unit": "%"}, {"measurement": "% change of gel surface vs control", "setting": "human dermal fibroblasts; 3 ppm", "value": "−17.5%; p < 0.01"}, {"measurement": "Gel heterogeneity", "setting": "human dermal fibroblasts; 3 ppm", "value": "22.9 +/− 4.1 UA"}, {"measurement": "Gel surface", "setting": "human dermal fibroblasts; 3 ppm", "value": "6.12 ± 1.94", "unit": "cm^2"}, {"measurement": "% change of gel surface vs control", "setting": "human dermal fibroblasts; 5 ppm", "value": "−21.5%; p < 0.01"}, {"measurement": "Gel heterogeneity", "setting": "human dermal fibroblasts; 5 ppm", "value": "21.8 +/− 3.6 UA"}, {"measurement": "Gel surface", "setting": "human dermal fibroblasts; 5 ppm", "value": "5.82 ± 1.69", "unit": "cm^2"}, {"measurement": "gene expression of actin gamma 2 (ACTG2)", "setting": "fibroblasts; [2]", "value": "increase in gene expression"}, {"measurement": "gene expression of filament associated actin protein (AFAP1L1)", "setting": "fibroblasts; [2]", "value": "increase in gene expression"}, {"measurement": "gene expression of hyaluronic acid synthase 2", "setting": "fibroblasts; [2]", "value": "increase in gene expression"}, {"measurement": "expression of JMJD6 gene", "setting": "fibroblasts; [3]", "value": "increased expression"}, {"measurement": "expression of PLOD2 gene", "setting": "fibroblasts; [3]", "value": "increased expression"}, {"measurement": "% of change of hyaluronic acid vs control", "setting": "hyaluronic acid; 3 ppm", "value": "+23%"}, {"measurement": "hyaluronic acid (AH)", "setting": "hyaluronic acid; 3 ppm", "value": "5322 +/− 157 ng of AH/10^6 cells"}, {"measurement": "% of change of hyaluronic acid vs control", "setting": "hyaluronic acid; 5 ppm", "value": "+33%"}, {"measurement": "hyaluronic acid (AH)", "setting": "hyaluronic acid; 5 ppm", "value": "5758 +/− 82 ng of AH/10^6 cells"}, {"measurement": "% of change of hyaluronic acid vs control", "setting": "hyaluronic acid; 7 ppm", "value": "+41%"}, {"measurement": "hyaluronic acid (AH)", "setting": "hyaluronic acid; 7 ppm", "value": "6101 +/− 320 ng of AH/10^6 cells"}, {"measurement": "% of change of hyaluronic acid vs control", "setting": "hyaluronic acid; 10 ppm", "value": "+46%"}, {"measurement": "hyaluronic acid (AH)", "setting": "hyaluronic acid; 10 ppm", "value": "6331 +/− 365 ng of AH/10^6 cells"}]}]}
